Structures can show the parent of a compound that is named as a salt.

18 compounds from US20120129872A1, “FUSED HETEROARYL INHIBITORS OF PRO-MATRIX METALLOPROTEINASE ACTIVATION” (priority 2010, published 2012) can be followed below.

In experiment [1] the target is T1, full-length proMMP9(1-707) (SEQ ID NO:1), activation by catalytic MMP3 (Homo sapiens, UniProt P14780, R574P).
T1 construct: made in house; host or cells: HEK293 (transient, secreted)
In words: proMMP9/MMP3 P126 Activation Assay. The class given is biochemical. On the procedure: proMMP9/MMP3 P126 Activation Assay
The reaction volume was 50 μL. […] Reactivity of residual MMP3 towards P-126 substrate was minimal under these conditions.

Experiment [2] deals with T2, proMMP9(20-445;ΔFnII) (SEQ ID NO:6) (Homo sapiens, UniProt P14780, DEL216-390).
T2 construct: start methionine (N); made in house; host or cells: E. coli BL21(DE3) RIL
T2 sequence (P14780 with tags, fused parts or gaps DEL216-390): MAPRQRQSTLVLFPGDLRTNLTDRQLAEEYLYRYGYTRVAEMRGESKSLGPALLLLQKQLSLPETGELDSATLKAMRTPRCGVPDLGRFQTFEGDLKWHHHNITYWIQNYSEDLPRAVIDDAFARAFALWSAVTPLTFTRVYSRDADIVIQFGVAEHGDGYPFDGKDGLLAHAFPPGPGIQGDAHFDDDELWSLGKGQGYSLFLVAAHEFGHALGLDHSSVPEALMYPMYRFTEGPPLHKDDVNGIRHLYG
The experiment can be described thus: ThermoFluor binding assay with proMMP9(20-445;ΔFnII). The protocol:
(§1) The ThermoFluor® (TF) assay is a 384-well plate-based binding assay that measures thermal stability of proteins (Biomol Screen 2001, 6, 429-40; Biochemistry 2005, 44, 5258-66). The experiments were carried out using instruments available from Johnson & Johnson Pharmaceutical Research & Development, LLC. TF dye used in all experiments was […] (1,8-ANS) (Invitrogen: A-47).
(§2) Compounds were arranged in a pre-dispensed plate (Greiner Bio-one: 781280), wherein compounds were serially diluted in 100% DMSO across 11 columns within a series. Columns 12 and 24 were used as DMSO reference and contained no compound. For multiple compound concentration-response experiments, the compound aliquots ([…]) were robotically predispensed directly into black 384-well polypropylene PCR microplates (Abgene: TF-0384/k) using a Cartesian Hummingbird liquid handler (DigiLab, Holliston, Mass.). Following compound dispense, protein and dye solutions were added to achieve the final assay volume of 3 μL. The assay solutions were overlayed with 1 μL of silicone oil (Fluka, type DC 200: 85411) to prevent evaporation.
(§3) Assay plates were robotically loaded onto a thermostatically controlled PCR-type thermal block and then heated from 40 to 90° C. at a ramp-rate of 1° C./min for all experiments. Fluorescence was measured by continuous illumination with UV light (Hamamatsu LC6) supplied via fiber optics and filtered through a band-pass filter (380-400 nm; >60D cutoff). Fluorescence emission of the entire 384-well plate was detected by measuring light intensity using a CCD camera (Sensys, Roper Scientific) filtered to detect 500±25 nm, resulting in simultaneous and independent readings of all 384 wells. A single image with 20-sec exposure time was collected at each temperature, and the sum of the pixel intensity in a given area of the assay plate was recorded vs temperature and fit to standard equations to yield the Tm (J Biomol Screen 2001, 6, 429-40).
(§4) Thermodynamic parameters necessary for fitting compound binding for each proMMP were estimated by differential scanning calorimetry (DSC) and from ThermoFluor® data. The heat capacity of unfolding for each protein was estimated from the molecular weight and from ThermoFluor® dosing data.
ThermoFluor® with proMMP9(20-445;ΔFnII (SEQ ID NO:6)
The protein sample preparations included a desalting buffer exchange step via a PD-10 gravity column (GE Healthcare). The desalting buffer exchange was performed prior to diluting the protein to the final assay concentration of 2.8 μM proMMP9(20-445;ΔFnII) (SEQ ID NO:6). The concentration of proMMP9(20-445;ΔFnII) (SEQ ID NO:6) was determined spectrophotometrically based on a calculated extinction coefficient of ε280=39880 M^−1 cm^−1, a calculated molecular weight of 28.2 kDa, and calculated pI of 5.5. ThermoFluor® reference conditions were define as follows: 80 μg/mL (2.8 μM) proMMP9(20-445;ΔFnII) (SEQ ID NO:6), 50 μM 1,8-ANS, pH 7.0 Buffer (50 mM HEPES pH 7.0, 100 mM NaCl, 0.001% Tween-20, 2.5 mM MgCl2, 300 μM CaCl2). The thermodynamic parameters for proMMP9(20-445;ΔFnII) (SEQ ID NO:6) are as follows: Tm (° C.)=72 (+/−0.1), ΔUH(Tm) (cal mol^−1)=160000(+/−5000), ΔUS(Tm) (cal mol^−1 K^−1)=434, ΔUCp (cal mol^−1 K^−1)=2400.

Experiment [3] deals with T3, proMMP9(67-444;ΔFnII) (SEQ ID NO:5) (Homo sapiens, UniProt P14780, DEL216-390).
T3 construct: start methionine (N); made in house; host or cells: E. coli BL21(DE3) RIL
T3 sequence (P14780 with tags, fused parts or gaps DEL216-390): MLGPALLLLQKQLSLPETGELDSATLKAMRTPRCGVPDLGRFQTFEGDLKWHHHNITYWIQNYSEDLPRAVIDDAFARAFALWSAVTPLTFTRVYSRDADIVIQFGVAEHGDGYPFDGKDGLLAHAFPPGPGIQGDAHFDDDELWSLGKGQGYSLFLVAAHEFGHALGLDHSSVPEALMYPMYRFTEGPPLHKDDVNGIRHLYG
In words: ThermoFluor binding assay with proMMP9(67-444;ΔFnII). The protocol: as §1, §2, §3, §4
ThermoFluor® with proMMP9(67-444;ΔFnII (SEQ ID NO:5)
The protein sample preparations had to include a desalting buffer exchange step via a PD-10 gravity column (GE Healthcare). The desalting buffer exchange was performed prior to diluting the protein to the final assay concentration of 3.5 μM proMMP9(67-444;ΔFnII) (SEQ ID NO:5). The concentration of proMMP9(67-444;ΔFnII) (SEQ ID NO:5) was determined spectrophotometrically based on a calculated extinction coefficient of ε280=33900 M^−1 cm^−1, a calculated molecular weight of 22.6 kDa, and calculated pI of 5.20. ThermoFluor® reference conditions were defined as follows: 80 μg/mL (3.5 μM) proMMP9(67-444;ΔFnII) (SEQ ID NO:5), 50 μM 1,8-ANS, pH 7.0 Buffer (50 mM HEPES pH 7.0, 100 mM NaCl, 0.001% Tween-20, 2.5 mM MgCl2, 300 μM CaCl2). The thermodynamic parameters for proMMP9(67-444;ΔFnII) (SEQ ID NO:5) are as follows: Tm (° C.)=63 (+/−0.1), ΔUH(Tm) (cal mol^−1)=105000(+/−5000), ΔUS(Tm) (cal mol^−1 K^−1)=450, ΔuCp (cal mol^−1 K^−1)=2000.

T1 sequence (P14780 20-707 R574P): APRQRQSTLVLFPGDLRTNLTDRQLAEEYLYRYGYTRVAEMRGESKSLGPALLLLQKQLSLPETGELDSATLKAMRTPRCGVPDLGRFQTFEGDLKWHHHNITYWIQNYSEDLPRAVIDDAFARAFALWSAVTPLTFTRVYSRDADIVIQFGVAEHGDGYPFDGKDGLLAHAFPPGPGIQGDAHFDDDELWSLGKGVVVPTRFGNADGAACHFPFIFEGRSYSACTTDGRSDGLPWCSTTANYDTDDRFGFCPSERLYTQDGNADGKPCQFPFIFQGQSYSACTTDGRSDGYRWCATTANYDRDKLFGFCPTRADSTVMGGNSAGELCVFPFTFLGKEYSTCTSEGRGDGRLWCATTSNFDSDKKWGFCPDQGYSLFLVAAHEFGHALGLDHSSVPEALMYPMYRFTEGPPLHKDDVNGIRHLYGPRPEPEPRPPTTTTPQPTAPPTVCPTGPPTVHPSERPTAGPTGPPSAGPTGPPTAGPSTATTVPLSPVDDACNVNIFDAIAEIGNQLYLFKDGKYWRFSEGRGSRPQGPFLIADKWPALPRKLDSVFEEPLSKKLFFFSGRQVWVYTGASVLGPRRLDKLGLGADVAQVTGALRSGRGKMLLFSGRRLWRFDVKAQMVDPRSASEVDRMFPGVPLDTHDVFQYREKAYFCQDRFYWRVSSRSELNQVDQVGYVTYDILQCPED

In experiment [1], `CC(C)Oc1ccc(C(N)=O)cc1Nc1nc(-c2ccc3c(cnn3C)c2)cs1` [Example 14, 4-Isopropoxy-3-[4-(1-methyl-1H-indazol-5-yl)-thiazol-2-ylamino]-benzamide•TFA] showed an IC50 of 350 nM. Also, the results for the equilibrium dissociation constant (Kd) in experiment [2] and in experiment [3] were 67 nM and 670 nM, respectively.
The like results for `Cn1ncc2cc(-c3csc(Nc4cc(C(N)=O)ccc4OC(F)(F)F)n3)ccc21` [Example 16, 3-[4-(1-Methyl-1H-indazol-5-yl)-thiazol-2-ylamino]-4-trifluoromethoxy-benzamide•TFA] were, in that order, roughly 2000 nM, 270 nM and 6700 nM.
The like results for `Cn1cnc2cc(-c3csc(Nc4cc(S(N)(=O)=O)ccc4OC(F)(F)F)n3)ccc21` [Example 12, 3-[4-(1-Methyl-1H-benzoimidazol-5-yl)-thiazol-2-ylamino]-4-trifluoromethoxy-benzenesulfonamide] were, in that order, 860 nM, 750 nM and 5300 nM.
For the compound `CCCn1cnc2cc(-c3csc(Nc4cc(S(N)(=O)=O)ccc4OC(C)C)n3)ccc21` [Example 26], the IC50 in experiment [1] came to 470 nM. For the same compound, the Kd in experiment [2] was 210 nM; in experiment [3], 1000 nM.
`CC(C)Oc1ccc(S(N)(=O)=O)cc1Nc1nc(-c2ccc3c(cnn3C)c2)cs1` [Example 15, 4-Isopropoxy-3-[4-(1-methyl-1H-indazol-5-yl)-thiazol-2-ylamino]-benzenesulfonamide•TFA]: in experiment [1], 550 nM corresponded to half-maximal inhibition (IC50). The Kd in experiment [2] amounted to 110 nM; in experiment [3], 280 nM.
The like results for `CCCn1cnc2ccc(-c3csc(Nc4cc(S(N)(=O)=O)ccc4OC(C)C)n3)cc21` [Example 19, 4-Isopropoxy-3-[4-(3-propyl-3H-benzoimidazol-5-yl)-thiazol-2-ylamino]-benzenesulfonamide•TFA] were, in that order, 460 nM, 170 nM and 830 nM.
In the case of `CC(C)Oc1ccc(S(N)(=O)=O)cc1Nc1nc(-c2ccc3c(c2)nc(CN(C)C)n3C)cs1` [Example 31, 3-((4-(2-((Dimethylamino)methyl)-1-methyl-1H-benzo[d]imidazol-5-yl)thiazol-2-yl)amino)-4-isopropoxybenzenesulfonamide•TFA], the IC50 in experiment [1] came out at 73 nM. Besides, the Kd in experiment [2] was determined as 52 nM.
Compound `CC(C)Oc1ccc(S(N)(=O)=O)cc1Nc1nc(-c2ccc3c(c2)nc(CO)n3C)cs1` [Example 29] displayed a 50% inhibitory concentration (IC50) in experiment [1] of 150 nM. The Kd is 100 nM in experiment [2] and 660 nM in experiment [3].
The like results for `CCn1c(C)nc2cc(-c3csc(Nc4cc(S(N)(=O)=O)ccc4OC(C)C)n3)ccc21` [Example 17, 3-[4-(1-Ethyl-2-methyl-1H-benzoimidazol-5-yl)-thiazol-2-ylamino]-4-isopropoxy-benzenesulfonamide•HCl] were, in that order, 300 nM, 212 nM and 850 nM.
For `COc1ccc(C(N)=O)cc1Nc1nc(-c2ccc3c(c2)ncn3C)cs1` [Example 10, 4-Methoxy-3-[4-(1-methyl-1H-benzoimidazol-5-yl)-thiazol-2-ylamino]-benzamide] the same measures were 850 nM, 320 nM and 990 nM.
For `CCn1cnc2ccc(-c3csc(Nc4cc(S(N)(=O)=O)ccc4OC(C)C)n3)cc21` [Example 27, 3-[4-(3-Ethyl-3H-benzoimidazol-5-yl)-thiazol-2-ylamino]-4-isopropoxy-benzenesulfonamide•TFA] the same measures were 250 nM, 120 nM and 470 nM.
In experiment [1], `CCn1cnc2cc(-c3csc(Nc4cc(S(N)(=O)=O)ccc4OC(C)C)n3)ccc21` [Example 25, 3-[4-(1-Ethyl-1H-benzoimidazol-5-yl)-thiazol-2-ylamino]-4-isopropoxy-benzenesulfonamide•TFA] gave a half-maximal inhibitory concentration (IC50) of 240 nM. The dissociation constant Kd in experiment [2] came out at 780 nM; in experiment [3], 1600 nM.
The like results for `COc1ccc(S(N)(=O)=O)cc1Nc1nc(-c2ccc3c(c2)ncn3C)cs1` [Example 11, 4-Methoxy-3-[4-(1-methyl-1H-benzoimidazol-5-yl)-thiazol-2-ylamino]-benzenesulfonamide] were, in that order, 860 nM, 4800 nM and 11000 nM.
The like results for `CC(C)Oc1ccc(S(N)(=O)=O)cc1Nc1nc(-c2ccc3sccc3c2)cs1` [Example 20, 3-(4-Benzo[b]thiophen-5-yl-thiazol-2-ylamino)-4-isopropoxy-benzenesulfonamide•TFA] were, in that order, 3600 nM, 450 nM and 1200 nM.
In the case of `CC(C)Oc1ccc(S(N)(=O)=O)cc1Nc1nc(-c2ccc3[nH]c(=O)[nH]c3c2)cs1` [Example 33], the IC50 in experiment [1] came out at 170 nM. This compound also yielded a Kd in experiment [2] of 82 nM.
The like results for `CC(C)Oc1ccc(S(N)(=O)=O)cc1Nc1nc(-c2ccc3c(c2)nc(CN2CCN(C)CC2)n3C)cs1` [Example 30] were, in that order, 82 nM and 87 nM.
The like results for `CC(C)Oc1ccc(S(N)(=O)=O)cc1Nc1nc(-c2ccc3[nH]c(N)nc3c2)cs1` [Example 34, 3-((4-(2-Amino-1H-benzo[d]imidazol-5-yl)thiazol-2-yl)amino)-4-isopropoxybenzenesulfonamide•TFA] were, in that order, 150 nM and 44 nM.
Regarding `CC(C)Oc1ccc(S(N)(=O)=O)cc1Nc1nc(-c2ccc3c(c2)nc(CN(C)CCN(C)C)n3C)cs1` [Example 32, 3-((4-(2-(((2-(Dimethylamino)ethyl)(methyl)amino)methyl)-1-methyl-1H-benzo[d]imidazol-5-yl)thiazol-2-yl)amino)-4-isopropoxybenzenesulfonamide•TFA], the IC50 in experiment [1] amounted to 200 nM. In experiment [2], this compound returned a Kd of 52 nM.
